The NIST ThermoML archive (doi:10.1021/je060271a)

Conditions: 283.14 K, Liquid, Vibrating tube method

CCCCCCC(=O)OCC(COC(=O)CCCCCC)(COC(=O)CCCCCC)COC(=O)CCCCCC [pentaerythritol tetraheptanoate]
Conditions	mass density [kg/m3]
28046 kPa	1001
28067 kPa	1001
28089 kPa	1001.1
28108 kPa	1001.1
28129 kPa	1001.2
28154 kPa	1001.1
28174 kPa	1001.2
28195 kPa	1001.1
28219 kPa	1001
28239 kPa	1001.2
28263 kPa	1001.3
28285 kPa	1001.2
28305 kPa	1001.2
28326 kPa	1001.3
28352 kPa	1001.1
28370 kPa	1001.3
28395 kPa	1001.3
28416 kPa	1001.2
28441 kPa	1001.3
28461 kPa	1001.4
28482 kPa	1001.2
28503 kPa	1001.3
28528 kPa	1001.3
28550 kPa	1001.3
28575 kPa	1001.4
28596 kPa	1001.4
28617 kPa	1001.3
28642 kPa	1001.4
28664 kPa	1001.4
28685 kPa	1001.4
28707 kPa	1001.4
28732 kPa	1001.3
28753 kPa	1001.4
28775 kPa	1001.4
28801 kPa	1001.5
28822 kPa	1001.5
28848 kPa	1001.4
28870 kPa	1001.4
28891 kPa	1001.4
28912 kPa	1001.6
28939 kPa	1001.6
28961 kPa	1001.6
28983 kPa	1001.6
29009 kPa	1001.5
29031 kPa	1001.6
29058 kPa	1001.4
29080 kPa	1001.6
29101 kPa	1001.6
29123 kPa	1001.6
29150 kPa	1001.7
29172 kPa	1001.6
29195 kPa	1001.6
29221 kPa	1001.7
29244 kPa	1001.7
29267 kPa	1001.7
29290 kPa	1001.7
29317 kPa	1001.7
29339 kPa	1001.7
29361 kPa	1001.8
29388 kPa	1001.7
29411 kPa	1001.7
29438 kPa	1001.9
29460 kPa	1001.9
29483 kPa	1001.8
29506 kPa	1001.8
29534 kPa	1001.9
29557 kPa	1001.9
29579 kPa	1001.8
29608 kPa	1001.8
29631 kPa	1001.8
29654 kPa	1001.9
29681 kPa	1001.9
29704 kPa	1002
29727 kPa	1001.8
29755 kPa	1001.9
29778 kPa	1001.9
29801 kPa	1002
29829 kPa	1001.9
29852 kPa	1002
29876 kPa	1002
29904 kPa	1002
29928 kPa	1002
29951 kPa	1002
29975 kPa	1002
30004 kPa	1002
30027 kPa	1002
30051 kPa	1002
30079 kPa	1002
30102 kPa	1002.1
30131 kPa	1002.2
30156 kPa	1002.2
30180 kPa	1002.1
30206 kPa	1002.2
30254 kPa	1002.2
30284 kPa	1002.1
30307 kPa	1002.2
30336 kPa	1002.2
30361 kPa	1002.3
30385 kPa	1002.3
30410 kPa	1002.2
30440 kPa	1002.3
30465 kPa	1002.3
30490 kPa	1002.3
30520 kPa	1002.3
30546 kPa	1002.3
30571 kPa	1002.2
30595 kPa	1002.3
30620 kPa	1002.4
30650 kPa	1002.3
30675 kPa	1002.4
30700 kPa	1002.4
